One assay has as its target T1, GSPT1 (Homo sapiens, UniProt P15170+Q96SW2).
T1 construct: The supernatant was aspirated as the extracted total cell protein; endogenous in cells; host or cells: human peripheral blood mononuclear cells (hPBMCs)
The assay is described as follows: Western blot degradation of GSPT1 in hPBMCs (24 h). It is filed as cell-based. To be noted: compounds at 50 nM and 500 nM. Put shortly:
(§1)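 PBMC Western blot, 24 h treatment; test levels 50 nM and 500 nM. Band density ÷ internal control, normalised → % remaining; degradation (%) = 1 − remaining.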
For orientation: Immunoblotting shows a protein as a band on a membrane.

The next assay has as its system Jurkat cells. Nature of the assay: Inhibition of proliferation of T lymphocytic leukemia cells Jurkat (cell viability assay, 96 h). The format is cell-based, human. Particulars: read-out: inhibitory activity (IC50) against tumor cells proliferation, Jurkat. On the procedure:
The tumor cells used herein were cultured in a cell culture medium listed in table 2 at 37 °C in an incubator with 5% CO2. Prior to experimentation, all cell lines used were correctly identified by STR profiling, and tested negative for Mycoplasma contamination using a Mycoplasma detection kit through routine screenings.
The IC50 values of the compounds of the present disclosure (including the compounds in Table 1, and Examples 1-498) were determined using the CellTiter-Meiluncell Luminescent Cell Viability Assay Kit from Dalian Meilun Biotech Co., Ltd. The detailed procedure is as follows: Tumor cells were seeded in 96-well cell culture plates at the densities specified in Table 3. On the following day, the test compounds of the present disclosure were subjected to serial dilution. […] Subsequently, 0.5 μL of the test compound dilution was transferred into the 96-well plate containing the cells, with each well containing 100 μL of cell culture medium. […] Into the 96-well plate, the diluted test compounds and corresponding detection reagents were added, resulting in final test compound concentrations of 500 nM and 10 nM, respectively. The experimental procedure is described below using the diluted 2 μM test compound as an example.
0.5 μL of the aforementioned diluted compound of the present disclosure (including the compounds in Table 1, and Examples 1-498) was added to the seeded cells in 100 μL of medium, yielding a final test compound concentration of 10 nM. After the cells were treated with the compounds of the present disclosure for a specified period, the cell viability assay reagent was added to the culture medium according to the kit's instructions to determine cell viability. […] All controls were treated using the same procedure as the compounds of the present disclosure. The growth inhibition curves for the compounds of the present disclosure were plotted using Prism GraphPad software, and the IC50 values were calculated therefrom.

The next assay concerns the target T2, IKZF2 (Homo sapiens, UniProt Q96SW2+Q9UKS7).
T2 construct: The supernatant was aspirated as the extracted total cell protein; endogenous in cells; host or cells: human peripheral blood mononuclear cells (hPBMCs)
The assay is described as follows: Western blot degradation of IKZF2 in hPBMCs (24 h). The format is cell-based. Particulars: compounds at 50 nM and 500 nM. Summed up:
as §1

For the next assay, the target named is T3, IKZF3 (Homo sapiens, UniProt Q96SW2+Q9UKT9).
T3 construct: The supernatant was aspirated as the extracted total cell protein; endogenous in cells; host or cells: human peripheral blood mononuclear cells (hPBMCs)
The assay is described as follows: Western blot degradation of IKZF3 in hPBMCs (24 h). To be noted: compounds at 50 nM and 500 nM. It is filed as cell-based. Put shortly: as §1

A further assay has as its system MM.1S cells. Nature of the assay: Inhibition of proliferation of multiple myeloma cells MM.1S (cell viability assay, 96 h). It is filed as cell-based, human. To be noted: read-out: inhibitory activity (IC50) against tumor cells proliferation, MM.1S.
Another assay deals with T4, WEE1 (Homo sapiens, UniProt P30291+Q96SW2).
T4 construct: The supernatant was aspirated as the extracted total cell protein; endogenous in cells; host or cells: human peripheral blood mononuclear cells (hPBMCs)
Nature of the assay: Western blot degradation of WEE1 in hPBMCs (24 h). The format is cell-based. To be noted: compounds at 50 nM and 500 nM. Put shortly: as §1

The target of a further assay is T5, IKZF1 (Homo sapiens, UniProt Q13422+Q96SW2).
T5 construct: The supernatant was aspirated as the extracted total cell protein; endogenous in cells; host or cells: human peripheral blood mononuclear cells (hPBMCs)
Nature of the assay: Western blot degradation of IKZF1 in hPBMCs (24 h). Particulars: compounds at 50 nM and 500 nM. The format is cell-based. Put shortly:
as §1

In a further assay the target is T6, CK1α (Homo sapiens, UniProt P48729+Q96SW2).
T6 construct: The supernatant was aspirated as the extracted total cell protein; endogenous in cells; host or cells: human peripheral blood mononuclear cells (hPBMCs)
Nature of the assay: Western blot degradation of CK1α in hPBMCs (24 h). It is filed as cell-based. Particulars: compounds at 50 nM and 500 nM. Summed up:
as §1

Four compounds from patent US20260356819A1, “OXOISOINDOLINYL-SUBSTITUTED […] DERIVATIVE AND USE THEREOF” (GLUETACS THERAPEUTICS (SHANGHAI) CO., LTD., priority 2023, published 2026) can be followed below.

T5 sequence (Q13422 whole entry): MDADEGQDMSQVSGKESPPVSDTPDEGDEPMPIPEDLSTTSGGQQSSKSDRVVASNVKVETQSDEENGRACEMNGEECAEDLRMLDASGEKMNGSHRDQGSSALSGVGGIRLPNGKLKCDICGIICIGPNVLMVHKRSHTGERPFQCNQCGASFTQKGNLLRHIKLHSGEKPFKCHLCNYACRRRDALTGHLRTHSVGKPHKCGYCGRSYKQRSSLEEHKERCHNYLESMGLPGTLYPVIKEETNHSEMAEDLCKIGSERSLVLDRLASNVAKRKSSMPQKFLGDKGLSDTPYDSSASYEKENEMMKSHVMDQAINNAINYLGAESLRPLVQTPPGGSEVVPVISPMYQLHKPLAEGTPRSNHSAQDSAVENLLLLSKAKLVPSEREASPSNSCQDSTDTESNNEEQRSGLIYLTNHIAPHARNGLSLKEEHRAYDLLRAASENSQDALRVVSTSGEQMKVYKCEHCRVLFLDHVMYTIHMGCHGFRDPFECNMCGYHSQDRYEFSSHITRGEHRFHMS
T5 sequence (Q96SW2 whole entry): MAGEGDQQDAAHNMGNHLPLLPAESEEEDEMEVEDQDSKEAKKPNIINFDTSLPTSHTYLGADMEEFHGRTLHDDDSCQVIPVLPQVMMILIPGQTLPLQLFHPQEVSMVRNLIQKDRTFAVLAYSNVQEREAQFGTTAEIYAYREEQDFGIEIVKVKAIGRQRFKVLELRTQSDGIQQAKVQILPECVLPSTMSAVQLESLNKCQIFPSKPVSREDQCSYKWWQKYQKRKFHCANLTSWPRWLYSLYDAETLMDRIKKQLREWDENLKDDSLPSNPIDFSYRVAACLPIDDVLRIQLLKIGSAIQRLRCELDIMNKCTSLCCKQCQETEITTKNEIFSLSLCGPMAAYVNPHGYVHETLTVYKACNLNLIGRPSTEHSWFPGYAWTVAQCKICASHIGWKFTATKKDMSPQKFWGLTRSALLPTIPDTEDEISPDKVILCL
T5 sequence (Q16531 whole entry partner): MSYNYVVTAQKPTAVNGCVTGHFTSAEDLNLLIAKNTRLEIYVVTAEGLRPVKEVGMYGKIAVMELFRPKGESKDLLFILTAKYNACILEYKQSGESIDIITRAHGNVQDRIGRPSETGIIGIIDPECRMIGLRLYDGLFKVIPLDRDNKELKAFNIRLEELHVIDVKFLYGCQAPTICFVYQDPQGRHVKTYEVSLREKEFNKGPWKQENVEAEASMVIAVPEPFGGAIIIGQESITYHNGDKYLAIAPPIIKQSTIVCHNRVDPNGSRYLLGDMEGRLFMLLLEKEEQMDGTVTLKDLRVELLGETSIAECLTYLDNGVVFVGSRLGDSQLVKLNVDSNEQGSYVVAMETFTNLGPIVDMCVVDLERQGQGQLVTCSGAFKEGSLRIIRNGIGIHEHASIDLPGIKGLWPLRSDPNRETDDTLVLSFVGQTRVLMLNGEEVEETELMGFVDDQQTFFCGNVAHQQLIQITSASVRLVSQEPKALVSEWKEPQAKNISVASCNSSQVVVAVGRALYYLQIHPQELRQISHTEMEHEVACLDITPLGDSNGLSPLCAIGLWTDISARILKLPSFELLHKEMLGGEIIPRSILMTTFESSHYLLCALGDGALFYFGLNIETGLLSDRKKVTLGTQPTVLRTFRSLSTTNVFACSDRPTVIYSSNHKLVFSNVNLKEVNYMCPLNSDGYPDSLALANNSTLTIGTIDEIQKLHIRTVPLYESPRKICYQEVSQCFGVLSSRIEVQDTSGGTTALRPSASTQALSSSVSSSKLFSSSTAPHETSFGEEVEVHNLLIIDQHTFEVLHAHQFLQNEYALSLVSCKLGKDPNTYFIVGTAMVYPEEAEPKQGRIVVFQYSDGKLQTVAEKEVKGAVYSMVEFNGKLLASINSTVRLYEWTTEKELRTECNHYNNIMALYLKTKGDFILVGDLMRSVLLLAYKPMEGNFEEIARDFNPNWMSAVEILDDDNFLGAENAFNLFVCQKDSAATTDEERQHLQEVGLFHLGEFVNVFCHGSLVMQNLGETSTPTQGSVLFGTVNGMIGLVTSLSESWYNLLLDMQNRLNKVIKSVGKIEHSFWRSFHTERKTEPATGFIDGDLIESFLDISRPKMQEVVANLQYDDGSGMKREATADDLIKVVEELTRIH
T2 sequence (Q9UKS7 whole entry): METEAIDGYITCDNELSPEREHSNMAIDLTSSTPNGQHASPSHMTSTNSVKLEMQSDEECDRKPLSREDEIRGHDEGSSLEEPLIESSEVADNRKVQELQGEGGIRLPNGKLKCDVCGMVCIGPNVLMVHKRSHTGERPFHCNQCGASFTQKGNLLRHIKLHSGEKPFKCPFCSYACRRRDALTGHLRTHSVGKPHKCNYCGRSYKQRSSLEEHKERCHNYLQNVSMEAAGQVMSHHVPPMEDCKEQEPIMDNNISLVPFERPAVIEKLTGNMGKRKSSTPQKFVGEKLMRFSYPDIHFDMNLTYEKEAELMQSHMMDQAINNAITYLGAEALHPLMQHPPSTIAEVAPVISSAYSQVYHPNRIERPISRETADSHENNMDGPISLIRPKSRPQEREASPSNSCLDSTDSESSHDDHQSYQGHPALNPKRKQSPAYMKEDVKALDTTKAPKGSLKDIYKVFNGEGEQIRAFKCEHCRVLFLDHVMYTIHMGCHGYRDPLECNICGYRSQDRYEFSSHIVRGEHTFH
T2 sequence (Q96SW2 whole entry): as the sequence (Q96SW2 whole entry) above
T2 sequence (Q16531 whole entry partner): as the sequence (Q16531 whole entry partner) above
T1 sequence (P15170 whole entry): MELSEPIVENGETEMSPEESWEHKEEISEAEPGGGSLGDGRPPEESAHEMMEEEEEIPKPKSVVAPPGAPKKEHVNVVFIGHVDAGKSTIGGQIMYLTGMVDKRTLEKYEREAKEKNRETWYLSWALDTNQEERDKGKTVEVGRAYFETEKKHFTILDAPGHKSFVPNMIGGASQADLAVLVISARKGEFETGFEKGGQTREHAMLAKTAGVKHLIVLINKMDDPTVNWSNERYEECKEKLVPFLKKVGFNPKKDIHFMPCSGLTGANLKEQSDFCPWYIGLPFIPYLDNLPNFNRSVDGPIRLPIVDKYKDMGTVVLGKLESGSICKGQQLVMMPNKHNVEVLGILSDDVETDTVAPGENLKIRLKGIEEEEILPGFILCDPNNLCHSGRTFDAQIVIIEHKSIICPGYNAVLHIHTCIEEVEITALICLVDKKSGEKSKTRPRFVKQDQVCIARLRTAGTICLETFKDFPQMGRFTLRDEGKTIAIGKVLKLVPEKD
T1 sequence (Q96SW2 whole entry): as the sequence (Q96SW2 whole entry) above
T1 sequence (Q16531 whole entry partner): as the sequence (Q16531 whole entry partner) above
T6 sequence (P48729 whole entry): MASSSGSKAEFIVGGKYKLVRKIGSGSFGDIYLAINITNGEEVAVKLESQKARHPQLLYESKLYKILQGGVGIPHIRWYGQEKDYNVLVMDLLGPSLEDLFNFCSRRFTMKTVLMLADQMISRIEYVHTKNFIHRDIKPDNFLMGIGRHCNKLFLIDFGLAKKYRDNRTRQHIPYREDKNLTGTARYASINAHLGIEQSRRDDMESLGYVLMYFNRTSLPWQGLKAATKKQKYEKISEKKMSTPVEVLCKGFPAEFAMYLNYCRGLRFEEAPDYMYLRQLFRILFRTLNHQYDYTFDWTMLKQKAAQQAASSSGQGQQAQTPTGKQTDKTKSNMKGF
T6 sequence (Q96SW2 whole entry): as the sequence (Q96SW2 whole entry) above
T6 sequence (Q16531 whole entry partner): as the sequence (Q16531 whole entry partner) above
T3 sequence (Q9UKT9 whole entry): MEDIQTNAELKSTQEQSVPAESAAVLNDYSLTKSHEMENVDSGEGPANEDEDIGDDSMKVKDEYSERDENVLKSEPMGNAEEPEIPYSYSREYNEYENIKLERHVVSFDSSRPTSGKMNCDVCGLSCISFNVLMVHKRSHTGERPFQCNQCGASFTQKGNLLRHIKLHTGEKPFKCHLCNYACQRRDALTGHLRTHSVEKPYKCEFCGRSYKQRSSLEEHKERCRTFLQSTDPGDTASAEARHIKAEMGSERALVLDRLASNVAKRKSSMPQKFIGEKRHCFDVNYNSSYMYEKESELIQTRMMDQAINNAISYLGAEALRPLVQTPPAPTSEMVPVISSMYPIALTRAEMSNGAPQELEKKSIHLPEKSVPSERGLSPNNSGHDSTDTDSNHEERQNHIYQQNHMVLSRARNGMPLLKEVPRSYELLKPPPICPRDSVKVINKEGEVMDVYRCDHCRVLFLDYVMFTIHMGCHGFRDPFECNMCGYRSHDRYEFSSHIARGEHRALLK
T3 sequence (Q96SW2 whole entry): as the sequence (Q96SW2 whole entry) above
T3 sequence (Q16531 whole entry partner): as the sequence (Q16531 whole entry partner) above

For `O=C1CCN(N2Cc3cc(CN4CCN(C(c5cccc(F)c5)c5cccc(F)c5)CC4)ccc3C2=O)C(=O)N1` [GT-07293, 1-(5-((4-(bis(3-fluorophenyl)methyl)piperazin-1-yl)methyl)-1-oxoisoindolin-2-yl)dihydropyrimidine-2,4(1H,3H)-dione], at GSPT1, the “GSPT1 substrate protein remaining %” value is listed as “A (0% ≤ substrate protein remaining % ≤80%)”. Further, the IC50 with Jurkat cells and with MM.1S cells was 0.1 to 0.3 µM throughout. Also, the “IKZF2 substrate protein remaining %” value on IKZF2 is listed as “A (0% ≤ substrate protein remaining % ≤80%)”. For the same compound, the “IKZF3 substrate protein remaining %” value on IKZF3 is on record as “A (0% ≤ substrate protein remaining % ≤80%)”. The “WEE1 substrate protein remaining %” value at WEE1 is “A (0% ≤ substrate protein remaining % ≤80%)”. Moreover, the “IKZF1 substrate protein remaining %” value on IKZF1 is “B (80%< substrate protein remaining % ≤100%)”. In addition, the “CK1α substrate protein remaining %” value on CK1α is on record as “B (80%< substrate protein remaining % ≤100%)”.

Turning to `O=C1CCN(N2Cc3cc(CN4CC=C(c5ccnc(Cl)c5Cl)CC4)ccc3C2=O)C(=O)N1` [GT-07432, 1-(5-((2′,3′-dichloro-3,6-dihydro-[4,4′-bipyridin]-1(2H)-yl)methyl)-1-oxoisoindolin-2-yl)dihydropyrimidine-2,4(1H,3H)-dione], the “GSPT1 substrate protein remaining %” value on GSPT1 was “A (0% ≤ substrate protein remaining % ≤80%)”. For the same compound, the results for the IC50 in the assay on Jurkat cells and in the assay on MM.1S cells were 0.5 to 1 µM and 0.3 to 0.5 µM, respectively. Besides, the “IKZF2 substrate protein remaining %” value at IKZF2 is listed as “A (0% ≤ substrate protein remaining % ≤80%)”. At IKZF3, the “IKZF3 substrate protein remaining %” value was “A (0% ≤ substrate protein remaining % ≤80%)”. The “WEE1 substrate protein remaining %” value at WEE1 was “A (0% ≤ substrate protein remaining % ≤80%)”. For the same compound, the “IKZF1 substrate protein remaining %” value on IKZF1 is on record as “A (0% ≤ substrate protein remaining % ≤80%)”. In addition, the “CK1α substrate protein remaining %” value on CK1α was “A (0% ≤ substrate protein remaining % ≤80%)”.

Turning to `O=C1CCN(N2Cc3cc(CN4CCC(c5cccs5)CC4)ccc3C2=O)C(=O)N1` [GT-07511, 1-(1-oxo-5-((4-(thiophen-2-yl)piperidin-1-yl)methyl)isoindolin-2-yl)dihydropyrimidine-2,4(1H,3H)-dione], the “GSPT1 substrate protein remaining %” value at GSPT1 is reported as “A (0% ≤ substrate protein remaining % ≤80%)”. Moreover, the IC50 with Jurkat cells and with MM.1S cells was 0.5 to 1 µM each time. In addition, the “IKZF2 substrate protein remaining %” value on IKZF2 is “A (0% ≤ substrate protein remaining % ≤80%)”. For the same compound, the “IKZF3 substrate protein remaining %” value at IKZF3 was “B (80%< substrate protein remaining % ≤100%)”. Also, the “WEE1 substrate protein remaining %” value at WEE1 is on record as “A (0% ≤ substrate protein remaining % ≤80%)”. Also, the “IKZF1 substrate protein remaining %” value on IKZF1 is listed as “A (0% ≤ substrate protein remaining % ≤80%)”. Besides, the “CK1α substrate protein remaining %” value on CK1α is on record as “A (0% ≤ substrate protein remaining % ≤80%)”.

As to `Cn1cc(C2CCN(Cc3ccc4c(c3)CN(N3CCC(=O)NC3=O)C4=O)CC2)c2ccc(F)cc21` [GT-07575, 1-(5-((4-(6-fluoro-1-methyl-1H-indol-3-yl)piperidin-1-yl)methyl)-1-oxoisoindolin-2-yl)dihydropyrimidine-2,4(1H,3H)-dione], on GSPT1, the “GSPT1 substrate protein remaining %” value is “A (0% ≤ substrate protein remaining % ≤80%)”. Also, the IC50 in the assay with Jurkat cells and with MM.1S cells was 0.1 to 0.3 µM each time. Besides, the “IKZF2 substrate protein remaining %” value at IKZF2 was “A (0% ≤ substrate protein remaining % ≤80%)”. In addition, the “IKZF3 substrate protein remaining %” value at IKZF3 is “A (0% ≤ substrate protein remaining % ≤80%)”. For the same compound, on WEE1, the “WEE1 substrate protein remaining %” value is listed as “A (0% ≤ substrate protein remaining % ≤80%)”. Further, the “IKZF1 substrate protein remaining %” value on IKZF1 was “A (0% ≤ substrate protein remaining % ≤80%)”. The “CK1α substrate protein remaining %” value at CK1α was “A (0% ≤ substrate protein remaining % ≤80%)”.
